Experimental data as given in patent US11844845B2, “Cell penetrating peptide, conjugate comprising same, and composition comprising conjugate” (GEMVAX & KAEL CO., LTD., priority 2012, dated 2023).

System: HeLa cell
Assay: Cell penetration of pep(CPP)-FITC conjugate in HeLa cell line, flow cytometry (FACS)
Format: cell-based, Homo sapiens
Conditions: HeLa cells, 20 uM FITC-fused peptide, 37° C. for an hour, control = FITC only
Experimental: Homo sapiens cervix adenocarcinoma cell line as HeLa cell lines were purchased from ATCC (American Type Cell Culture). The cells were cultured in MEM supplemented with 10% fetal bovine serum (Invitrogen, USA), Earle's salts, non-essential amino acids, sodium pyruvate and 100 μg/ml penicillin and 10 units/ml streptomycin and cultured at 37° C., 5% CO2 incubator.
Flow cytometry and Confocal microscope analysis were performed to compare the between degree of cellular uptake of the cells were treated with SEQ ID NO: 2 to SEQ ID NO: 178, pep (CPP) and control.
The cell line was divided in a 6-well plate and cultured in a medium containing 10% fetal bovine serum (Invitrogen, USA), 100 μg/ml penicillin, 100 units/ml streptomycin at 37° C. 5% CO2 incubator for 12 hours. After washing the cell line with PBS, starvation was induced in a Minimum Essential Medium for an hour. 20 uM of each carrier peptide was treated and cultured at 37° C. for an hour. After repeating the step of washing the cells with PBS for three times, Trypsin-EDTA was treated form 10 mins at 37° C. to separate the carrier peptide on the outside of the cell. cells were collected with refrigerated PBS and centrifugation was performed to repeat the step of washing the cells for three times. After then, the cells were suspended in 0.5 ml of PBS containing 4% Paraformaldehyde and fluorescence of the cells was analyzed using FACS Calibur (Becton Dickinson). The cellular uptake aspect of control and various peptides combined with FITC was compared and analyzed by MFI (Mean Fluorescence Intensity).
Analysis results shown in FIGS. 2 to 29 are given in detail in Table 7 below.

Point of comparison: “HREARPALLTSRLRFIPKP (listed as Homo sapiens) [Pep-RIA-16]”, “cellular uptake, MFI (Mean Fluorescence Intensity)” value 15.96 ± 2.37. Against it:
- EARPALLTSRLRF (listed as Homo sapiens) [Pep-RIA-80] — within error, 14.7 ± 0.79
- LTSRLRFIPK (listed as Homo sapiens) [Pep-RIA-96] — within error, 14.96 ± 0.42
- EARPALLTSRLRFIPKPD (listed as Homo sapiens) [Pep-RIA-65] — within error, 12.84 ± 1.11
- REARPALLTSRLRFIPKPDGLR (listed as Homo sapiens) [Pep-RIA-39] — within error, 15.84 ± 0.79
- REARPALLTSRLRFIPKPDGLRP (listed as Homo sapiens) [Pep-RIA-50] — within error, 15.47 ± 0.73
- AEVRQHREARPALLTSRLRFIPKP (listed as Homo sapiens) [Pep-RIA-51] — within error, 15.13 ± 1.03
- LLTSRL (listed as Homo sapiens) [Pep-RIA-108] — within error, 14.59 ± 0.17
- AEVRQHREARPALLTSRLRFIPK (listed as Homo sapiens) [Pep-RIA-7] — within error, 16.49 ± 1.35
- EARPALLTSRLRFIPKPDGLRPIV (listed as Homo sapiens) [Pep-RIA-71] — within error, 17.21 ± 0.52
- SRL (listed as Homo sapiens) [Pep-RIA-169] — lower, 5.64 ± 0.65
- LLTS (listed as Homo sapiens) [Pep-RIA-151] — lower, 8.81 ± 0.83
- EARPALLTS (listed as Homo sapiens) [Pep-RIA-84] — lower, 10.32 ± 0.49
- EARPALLTSRLRFIP (listed as Homo sapiens) [Pep-RIA-78] — within error, 13.95 ± 0.57
- EVRQHREARPALLTSRLRFIPK (listed as Homo sapiens) [Pep-RIA-6] — within error, 16.09 ± 2.52
- PALLTSRLR (listed as Homo sapiens) [Pep-RIA-132] — within error, 13.72 ± 0.52
- HREARPALLTSRLRFIPKPDGL (listed as Homo sapiens) [Pep-RIA-29] — within error, 15.26 ± 0.95
- PALLTSRLRFIP (listed as Homo sapiens) [Pep-RIA-130] — within error, 18.54 ± 1.64
- HREARPALLTSRLRFIPKPDGLR (listed as Homo sapiens) [Pep-RIA-38] — within error, 18.02 ± 0.71
- RPALLTSRLRFIPK (listed as Homo sapiens) [Pep-RIA-92] — higher, 26.28 ± 0.38
- EARP (listed as Homo sapiens) [Pep-RIA-89] — lower, 9.13 ± 0.77
- EVRQHREARPALLTSRLRFIPKPDGL (listed as Homo sapiens) [Pep-RIA-43] — within error, 15.34 ± 1.35
